The numbers were not newly measured in paper PMC6062831 (ACS Central Science, 2018), which cites them from elsewhere.

Where two headings read alike, the source gives them in different places.

The test system of one data set is Escherichia coli GUS. Particulars: cited from earlier work.
The subject of the next data set is human GUS ortholog. Particulars: cited from earlier work.

One may read the Ki as a dissociation constant, usually derived from enzyme kinetics or from competition with a known ligand. On to `O=C(O)[C@@H](O)[C@H]1OC(=O)[C@H](O)[C@H]1O` [D-glucaro-1,4-lactone], for which, in the data set on Escherichia coli GUS (read-out: Ki against Escherichia coli GUS), the inhibition constant (Ki) is 19 µM. Besides, the “inhibition of human GUS ortholog” value in the data set on human GUS ortholog is “potent inhibitors”.
With `O=C(O)[C@@H]1[C@@H](O)[C@H](O)[C@@]2(O)CC[C@@H]1N2` [uronic-noeurostegine], the Ki with Escherichia coli GUS (read-out: Ki against E. coli GUS) is 0.06 µM. For the same compound, in the data set with human GUS ortholog, the “inhibition of human GUS ortholog” value is listed as “potent inhibitors”.
